From US6967215B2, “Tetrahydrocarbazoles, a process for the preparation of those compounds, and the use thereof” (Ciba Specialty Chemicals Corporation, priority 2000, dated 2005)
Values belong to the compound of their own block, whether it stands above or below them.

Tests used:
Assay in all cases: MIC, microtitre dilution test (growth by optical density at 620 nm)
[1] = test system: Staphylococcus hominis DMS 20328; assay type: cell-based; conditions: for MIC [ppm] S. hominis: Table 5
Description: (§1) Casein/soybean flour peptone bouillon for the preparation of pre-cultures of the test bacteria and yeast.
(§2) The test substances are predissolved in dimethyl sulfoxide (DMSO) and tested in a dilution series of 1:2.
(§3) Bacteria and yeast are cultured overnight in CASO bouillon, the mould is cultured overnight on mycological slant agar, and washed off with 10 ml of 0.85% sodium chloride solution (+0.1% TritonX-100).
(§4) All the test organisms are adjusted to an organism count of 1-5×10^6 CFU/ml using 0.85% sodium chloride solution.
(§5) The test substances are pre-pipetted into microtitre plates in an amount of 8 μl per well.
(§6) Pre-diluted organism suspensions are diluted 1:100 in CASO bouillon (bacteria and yeast) or Sabouraud 2% glucose bouillon (mould) and are added in an amount of 192 μl per well to the test substances.
(§7) The test batches are incubated for 48 hours at 37° C. (bacteria and yeast) or for 5 days at 28° C. (mould).
(§8) After incubation, the growth is evaluated by reference to the turbidity of the test batches (optical density) at 620 nm in a microplate reader.
(§9) The minimum inhibitory concentration (MIC value) is the concentration of substance at which (compared with the growth of the control) an appreciable inhibition of growth (≦20% growth) of the test organisms is ascertained.
(§10) One microtitre plate is used for each test organism and substance concentration. All the substances are tested in duplicate.

[2] = test system: Corynebacterium xerosis ATCC 373; assay type: cell-based
Description: as §1, §2, §3, §4, §5, §6, §7, §8, §9, §10

[3] = test system: Micrococcus luteus ATCC 9341; assay type: cell-based
Description: as §1, §2, §3, §4, §5, §6, §7, §8, §9, §10

[4] = test system: Enterococcus hirae ATCC 10541; assay type: cell-based
Description: as §1, §2, §3, §4, §5, §6, §7, §8, §9, §10

[5] = test system: Staphylococcus epidermidis ATCC 12228; assay type: cell-based; conditions: for MIC Staphylococcus epidermidis ATCC 12228: Table 3
Description: as §1, §2, §3, §4, §5, §6, §7, §8, §9, §10

[6] = test system: Candida albicans ATCC 10259; assay type: cell-based
Description: as §1, §2, §3, §4, §5, §6, §7, §8, §9, §10

[7] = test system: Selenomonas artemidis ATCC 43528; assay type: cell-based; conditions: Table 4
Description: as §1, §2, §3, §4, §5, §6, §7, §8, §9, §10

[8] = test system: Streptococcus mutans ATCC 25175; assay type: cell-based; conditions: Table 4
Description: as §1, §2, §3, §4, §5, §6, §7, §8, §9, §10

[9] = test system: Staphylococcus aureus (methicillin-resistant) NCTC 11940; assay type: cell-based; conditions: Table 4
Description: as §1, §2, §3, §4, §5, §6, §7, §8, §9, §10

[10] = test system: Staphylococcus aureus (rifampicin-resistant) NCTC 10703; assay type: cell-based; conditions: Table 4
Description: as §1, §2, §3, §4, §5, §6, §7, §8, §9, §10

P. ovale ATCC 14521 = assay type: cell-based; conditions: Table 4
Description: as §1, §2, §3, §4, §5, §6, §7, §8, §9, §10

[11] = test system: Porphyromonas gingivalis DSM 20709; assay type: cell-based; conditions: Table 4
Description: as §1, §2, §3, §4, §5, §6, §7, §8, §9, §10

[12] = test system: Propionibacterium acnes ATCC 25746; assay type: cell-based; conditions: Table 4
Description: as §1, §2, §3, §4, §5, §6, §7, §8, §9, §10

[13] = test system: Streptococcus sobrinus DSM 20742; assay type: cell-based; conditions: Table 4
Description: as §1, §2, §3, §4, §5, §6, §7, §8, §9, §10

[14] = test system: Actinomyces viscosus DSM 43329; assay type: cell-based; conditions: Table 4
Description: as §1, §2, §3, §4, §5, §6, §7, §8, §9, §10

[15] = test system: Staphylococcus aureus (methicillin-resistant) NCTC 12493; assay type: cell-based; conditions: Table 4
Description: as §1, §2, §3, §4, §5, §6, §7, §8, §9, §10

[16] = test system: Staphylococcus aureus (penicillin-resistant) NCTC 10443; assay type: cell-based; conditions: Table 4
Description: as §1, §2, §3, §4, §5, §6, §7, §8, §9, §10

[17] = test system: Staphylococus aureus ATCC 9144; assay type: cell-based, Staphylococcus aureus; conditions: Table 4
Description: (§11) All the test organisms are adjusted to an organism count of 1-5×10^6 CFU/ml using 0.85% sodium chloride solution. The test substances are pre-pipetted into microtitre plates in an amount of 8 μl per well. Pre-diluted organism suspensions are diluted 1:100 in CASO bouillon (bacteria and yeast) or Sabouraud 2% glucose bouillon (mould) and are added in an amount of 192 μl per well to the test substances. The test batches are incubated for 48 hours at 37° C. (bacteria and yeast) or for 5 days at 28° C. (mould). After incubation, the growth is evaluated by reference to the turbidity of the test batches (optical density) at 620 nm in a microplate reader. The minimum inhibitory concentration (MIC value) is the concentration of substance at which (compared with the growth of the control) an appreciable inhibition of growth (≦20% growth) of the test organisms is ascertained. One microtitre plate is used for each test organism and substance concentration. All the substances are tested in duplicate.

[18] = test system: Aspergillus niger ATCC 6175; assay type: cell-based; conditions: for MIC [ppm] A. niger: Table 5
Description: (§12) Nutrient: Mycological slant agar for the pre-culture of moulds [table] The test substances are predissolved in dimethyl sulfoxide (DMSO) and tested in a dilution series of 1:2. Bacteria and yeast are cultured overnight in CASO bouillon, the mould is cultured overnight on mycological slant agar, and washed off with 10 ml of 0.85% sodium chloride solution (+0.1% TritonX-100). All the test organisms are adjusted to an organism count of 1-5×10^6 CFU/ml using 0.85% sodium chloride solution. The test substances are pre-pipetted into microtitre plates in an amount of 8 μl per well. Pre-diluted organism suspensions are diluted 1:100 in CASO bouillon (bacteria and yeast) or Sabouraud 2% glucose bouillon (mould) and are added in an amount of 192 μl per well to the test substances. The test batches are incubated for 48 hours at 37° C. (bacteria and yeast) or for 5 days at 28° C. (mould). After incubation, the growth is evaluated by reference to the turbidity of the test batches (optical density) at 620 nm in a microplate reader. The minimum inhibitory concentration (MIC value) is the concentration of substance at which (compared with the growth of the control) an appreciable inhibition of growth (≦20% growth) of the test organisms is ascertained. One microtitre plate is used for each test organism and substance concentration. All the substances are tested in duplicate.

[19] = test system: Tr. mentagrophytes ATCC 9533; assay type: cell-based; conditions: Table 4
Description: as §12

[20] = test system: Epidermophyton floccosum DSM 10709; assay type: cell-based; conditions: Table 4
Description: as §12

[21] = test system: Trichophyton rubrum DSM 4167; assay type: cell-based; conditions: Table 4
Description: as §12

[22] = test system: Trichoderma longibrachiatum DSM 768; assay type: cell-based; conditions: Table 4
Description: as §12

P. aeruginosa = assay type: cell-based; conditions: Table 5
Description: as §11

[23] = test system: Escherichia coli NCTC 8196; assay type: cell-based; conditions: Table 5
Description: as §1, §2, §3, §4, §5, §6, §7, §8, §9, §10

SMILES: CC1(C)CC2c3c([nH]c4ccccc34)C3C(=O)NC(=O)C3C2C(C)(C)C1 (centres unmarked) [compound 63]
MIC Staphylococcus hominis DSM 20328 ([1]; Table 3): 7.5 ppm
MIC Corynebacterium xerosis ATCC 373 ([2]; Table 3): ≦3.75 ppm
MIC Micrococcus luteus ATCC 9341 ([3]; Table 3): ≦3.75 ppm
MIC Enterococcus hirae ATCC 10541 ([4]; Table 3): 7.5 ppm
MIC Staphylococcus epidermidis ATCC 12228 [5]: ≦3.75 ppm
MIC Candida albicans ATCC 10259 ([6]; Table 3): >120 ppm

SMILES: O=C1NC(=O)C2C1c1[nH]c3ccc(Br)cc3c1C1CCCCCC12 (centres unmarked) [compound 32]
MIC Staphylococcus hominis DSM 20328 ([1]; Table 4): 5.0 ppm
MIC Selenomonas artemidis ATCC 43528 [7]: 50.0 ppm
MIC Streptococcus mutans ATCC 25175 [8]: 5.0 ppm
MIC Staphylococcus aureus (methicillin-resistant) NCTC 11940 [9]: 5.0 ppm
MIC Staphylococcus aureus (rifampicin-resistant) NCTC 10703 [10]: 5.0 ppm
MIC P. ovale ATCC 14521 (P. ovale ATCC 14521): >10 ppm
MIC Porphyromonas gingivalis DSM 20709 [11]: 3.125 ppm
MIC Propionibacterium acnes ATCC 25746 [12]: 6.25 ppm
MIC Corynebacterium xerosis ATCC 373 ([2]; Table 4): 5.0 ppm
MIC Micrococcus luteus ATCC 9341 ([3]; Table 4): 5.0 ppm
MIC Streptococcus sobrinus DSM 20742 [13]: 6.25 ppm
MIC Enterococcus hirae ATCC 10541 ([4]; Table 4): >10 ppm
MIC Actinomyces viscosus DSM 43329 [14]: 6.25 ppm
MIC S. epidermidis ATCC 12228 ([5]; Table 4): 10 ppm
MIC Staphylococcus aureus (methicillin-resistant) NCTC 12493 [15]: 5.0 ppm
MIC Staphylococcus aureus (penicillin-resistant) NCTC 10443 [16]: 5.0 ppm
MIC Candida albicans ATCC 10259 ([6]; Table 4): >10 ppm
MIC Staphylococus aureus ATCC 9144 [17]: 5.0 ppm
MIC Aspergillus niger ATCC 6175 ([18]; Table 4): >10 ppm
MIC Tr. mentagrophytes ATCC 9533 [19]: 10 ppm
MIC Epidermophyton floccosum DSM 10709 [20]: 5.0 ppm
MIC Trichophyton rubrum DSM 4167 [21]: 10 ppm
MIC Trichoderma longibrachiatum DSM 768 [22]: >10 ppm

SMILES: CCc1cccc2c3c([nH]c12)C1C(=O)NC(=O)C1C1CCCCCCC31 (centres unmarked) [compound 89]
MIC Staphylococcus hominis DSM 20328 ([1]; Table 3): 7.5 ppm
MIC Corynebacterium xerosis ATCC 373 ([2]; Table 3): ≦3.75 ppm
MIC Micrococcus luteus ATCC 9341 ([3]; Table 3): ≦3.75 ppm
MIC Enterococcus hirae ATCC 10541 ([4]; Table 3): >120 ppm
MIC Staphylococcus epidermidis ATCC 12228 [5]: ≦3.75 ppm
MIC Candida albicans ATCC 10259 ([6]; Table 3): >120 ppm

SMILES: COc1cccc2[nH]c3c(c12)C1CCCCCCCCCCC1C1C(=O)NC(=O)C31 (centres unmarked) [Compound 188]
MIC [ppm] P. aeruginosa (P. aeruginosa): >120 ppm
MIC [ppm] S. hominis [1]: 15 ppm
MIC [ppm] E. coil [23]: >120 ppm
MIC [ppm] A. niger [18]: >120 ppm

SMILES: CCCN1CCC2c3c([nH]c4cccc(F)c34)C3C(=O)NC(=O)C3C2C1 (centres unmarked) [Compound 226]
MIC [ppm] P. aeruginosa (P. aeruginosa): >120 ppm
MIC [ppm] S. hominis [1]: 120 ppm
MIC [ppm] E. coil [23]: 120 ppm
MIC [ppm] A. niger [18]: >120 ppm

SMILES: CCCN1CCC2c3c([nH]c4cccc(OCC(O)CNC(C)C)c34)C3C(=O)NC(=O)C3C2C1 (centres unmarked) [Compound 190]
MIC [ppm] P. aeruginosa (P. aeruginosa): >120 ppm
MIC [ppm] S. hominis [1]: >120 ppm
MIC [ppm] E. coil [23]: >120 ppm
MIC [ppm] A. niger [18]: >120 ppm

More lines, now with the values ahead:

MIC [ppm] P. aeruginosa (P. aeruginosa): >120 ppm
MIC [ppm] S. hominis [1]: 120 ppm
MIC [ppm] E. coil [23]: >120 ppm
MIC [ppm] A. niger [18]: >120 ppm
SMILES: CCCN1CCC2c3c([nH]c4cc(Cl)ccc34)C3C(=O)NC(=O)C3C2C1 (centres unmarked) [Compound 199]

MIC [ppm] P. aeruginosa (P. aeruginosa): 120 ppm
MIC [ppm] S. hominis [1]: 120 ppm
MIC [ppm] E. coil [23]: >120 ppm
MIC [ppm] A. niger [18]: >120 ppm
SMILES: CCCN1CCC2c3c([nH]c4cc(OC)ccc34)C3C(=O)NC(=O)C3C2C1 (centres unmarked) [Compound 231]

MIC [ppm] P. aeruginosa (P. aeruginosa): 120 ppm
MIC [ppm] S. hominis [1]: >120 ppm
MIC [ppm] E. coil [23]: >120 ppm
MIC [ppm] A. niger [18]: >120 ppm
SMILES: CCCN1CCC2c3c([nH]c4cc(F)ccc34)C3C(=O)NC(=O)C3C2C1 (centres unmarked) [Compound 207]
